Reference: the supplement of paper PMC10307832

Key:
Test in all cases: relative viability (nuclei count vs DMSO), 5 days (fraction); higher = more cells survive
201T = system: 201T
Outline: (§1)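 Dosing by pin tool came one day after lung cancer cell lines were seeded in 1536-well plates, using either one drug or a fixed anchor-drug dose plus five library-drug doses (not always all listed) in √10 steps. After 5 days, nuclei were counted on 4× images. Relative viability is treated-well nuclei count divided by vehicle-well nuclei count, and values are medians of duplicate plates.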

ABC-1 = system: ABC-1
Outline: as §1

BEN = system: BEN
Outline: as §1

CAL-12T = system: CAL-12T
Outline: as §1

COR-L 105 = system: COR-L 105
Outline: as §1

COR-L23 = system: COR-L23
Outline: as §1

EKVX = system: EKVX
Outline: as §1

HARA = system: HARA
Outline: as §1

HCC-366 = system: HCC-366
Outline: as §1

LU99A = system: LU99A
Outline: as §1

NCI-H1437 = system: NCI-H1437
Outline: as §1

NCI-H1650 = system: NCI-H1650
Outline: as §1

NCI-H1666 = system: NCI-H1666
Outline: as §1

NCI-H2009 = system: NCI-H2009
Outline: as §1

NCI-H3122 = system: NCI-H3122
Outline: as §1

NCI-H441 = system: NCI-H441
Outline: as §1

NCI-H661 = system: NCI-H661
Outline: as §1

NCI-H727 = system: NCI-H727
Outline: as §1

NCI-H838 = system: NCI-H838
Outline: as §1

PC-14 = system: PC-14
Outline: as §1

With `NC(=O)Nc1cc(-c2cccc(F)c2)sc1C(=O)N[C@H]1CCCNC1` [AZD7762] + CC(C)C[C@H](NC(=O)[C@H](Cc1ccccc1)NC(=O)c1cnccn1)B(O)O [Bortezomib] (partner 0.002 µM) the relative viability (201T; first compound 0.01 µM) was 1.09, the relative viability (201T; first compound 0.03162 µM) was 1.12 and the relative viability (201T; first compound 0.1 µM) was 1.12. The relative viability (201T; first compound 0.3162 µM) was 1.12, the relative viability (201T; first compound 1 µM) was 1.19 and the relative viability (ABC-1; first compound 0.01 µM) was 0.276. For the same molecule, the relative viability (ABC-1; first compound 0.03162 µM) was 0.389, the relative viability (ABC-1; first compound 0.1 µM) was 0.3 and the relative viability (ABC-1; first compound 0.3162 µM) was 0.26. The relative viability (ABC-1; first compound 1 µM) was 0.202, the relative viability (BEN; first compound 0.01 µM) was 0.902 and the relative viability (BEN; first compound 0.03162 µM) was 0.758. It also gave a relative viability (BEN; first compound 0.1 µM) of 0.888, a relative viability (BEN; first compound 0.3162 µM) of 0.821 and a relative viability (BEN; first compound 1 µM) of 0.636. The relative viability (CAL-12T; first compound 0.01 µM) was 0.96, the relative viability (CAL-12T; first compound 0.03162 µM) was 1.06 and the relative viability (CAL-12T; first compound 0.1 µM) was 0.931. It also gave a relative viability (CAL-12T; first compound 0.3162 µM) of 0.641, a relative viability (CAL-12T; first compound 1 µM) of 0.23 and a relative viability (COR-L 105; first compound 0.01 µM) of 0.904. It also gave a relative viability (COR-L 105; first compound 0.03162 µM) of 0.803, a relative viability (COR-L 105; first compound 0.1 µM) of 0.836 and a relative viability (COR-L 105; first compound 0.3162 µM) of 0.389. It also gave a relative viability (COR-L 105; first compound 1 µM) of 0.356, a relative viability (COR-L23; first compound 0.01 µM) of 1.12 and a relative viability (COR-L23; first compound 0.03162 µM) of 0.981. For the same molecule, the relative viability (COR-L23; first compound 0.1 µM) was 0.985, the relative viability (COR-L23; first compound 0.3162 µM) was 0.905 and the relative viability (COR-L23; first compound 1 µM) was 0.229. For the same molecule, the relative viability (EKVX; first compound 0.01 µM) was 0.996, the relative viability (EKVX; first compound 0.03162 µM) was 1.04 and the relative viability (EKVX; first compound 0.1 µM) was 0.974. For the same molecule, the relative viability (EKVX; first compound 0.3162 µM) was 0.912, the relative viability (EKVX; first compound 1 µM) was 0.688 and the relative viability (HARA; first compound 0.01 µM) was 1.08. The relative viability (HARA; first compound 0.03162 µM) was 1.11, the relative viability (HARA; first compound 0.1 µM) was 1.14 and the relative viability (HARA; first compound 0.3162 µM) was 1.13. For the same molecule, the relative viability (HARA; first compound 1 µM) was 0.42, the relative viability (HCC-366; first compound 0.01 µM) was 1.1 and the relative viability (HCC-366; first compound 0.03162 µM) was 1.04. It also gave a relative viability (HCC-366; first compound 0.1 µM) of 1.03, a relative viability (HCC-366; first compound 0.3162 µM) of 0.62 and a relative viability (HCC-366; first compound 1 µM) of 0.0941. It also gave a relative viability (LU99A; first compound 0.01 µM) of 1.09, a relative viability (LU99A; first compound 0.03162 µM) of 1.24 and a relative viability (LU99A; first compound 0.1 µM) of 1.25. The relative viability (LU99A; first compound 0.3162 µM) was 0.867, the relative viability (LU99A; first compound 1 µM) was 0.402 and the relative viability (NCI-H1437; first compound 0.01 µM) was 0.407. It also gave a relative viability (NCI-H1437; first compound 0.03162 µM) of 0.4, a relative viability (NCI-H1437; first compound 0.1 µM) of 0.56 and a relative viability (NCI-H1437; first compound 0.3162 µM) of 0.58. It also gave a relative viability (NCI-H1437; first compound 1 µM) of 0.433, a relative viability (NCI-H1650; first compound 0.01 µM) of 0.217 and a relative viability (NCI-H1650; first compound 0.03162 µM) of 0.205. The relative viability (NCI-H1650; first compound 0.1 µM) was 0.211, the relative viability (NCI-H1650; first compound 0.3162 µM) was 0.203 and the relative viability (NCI-H1650; first compound 1 µM) was 0.204. For the same molecule, the relative viability (NCI-H1666; first compound 0.01 µM) was 0.906, the relative viability (NCI-H1666; first compound 0.03162 µM) was 0.906 and the relative viability (NCI-H1666; first compound 0.1 µM) was 1.13. The relative viability (NCI-H1666; first compound 0.3162 µM) was 0.848, the relative viability (NCI-H1666; first compound 1 µM) was 0.688 and the relative viability (NCI-H2009; first compound 0.01 µM) was 0.904. The relative viability (NCI-H2009; first compound 0.03162 µM) was 1.13, the relative viability (NCI-H2009; first compound 0.1 µM) was 1.08 and the relative viability (NCI-H2009; first compound 0.3162 µM) was 0.839. For the same molecule, the relative viability (NCI-H2009; first compound 1 µM) was 0.794, the relative viability (NCI-H3122; first compound 0.01 µM) was 1.04 and the relative viability (NCI-H3122; first compound 0.03162 µM) was 1.01. For the same molecule, the relative viability (NCI-H3122; first compound 0.1 µM) was 1.05, the relative viability (NCI-H3122; first compound 0.3162 µM) was 0.966 and the relative viability (NCI-H3122; first compound 1 µM) was 1.09. The relative viability (NCI-H441; first compound 0.01 µM) was 1.13, the relative viability (NCI-H441; first compound 0.03162 µM) was 0.972 and the relative viability (NCI-H441; first compound 0.1 µM) was 0.313. The relative viability (NCI-H441; first compound 0.3162 µM) was 0.456, the relative viability (NCI-H441; first compound 1 µM) was 0.548 and the relative viability (NCI-H661; first compound 0.01 µM) was 0.828. For the same molecule, the relative viability (NCI-H661; first compound 0.03162 µM) was 0.938, the relative viability (NCI-H661; first compound 0.1 µM) was 0.766 and the relative viability (NCI-H661; first compound 0.3162 µM) was 0.681. The relative viability (NCI-H661; first compound 1 µM) was 0.382, the relative viability (NCI-H727; first compound 0.01 µM) was 1.04 and the relative viability (NCI-H727; first compound 0.03162 µM) was 0.878. For the same molecule, the relative viability (NCI-H727; first compound 0.1 µM) was 0.556, the relative viability (NCI-H727; first compound 0.3162 µM) was 0.446 and the relative viability (NCI-H727; first compound 1 µM) was 0.298. The relative viability (NCI-H838; first compound 0.01 µM) was 0.773, the relative viability (NCI-H838; first compound 0.03162 µM) was 0.814 and the relative viability (NCI-H838; first compound 0.1 µM) was 0.715. For the same molecule, the relative viability (NCI-H838; first compound 0.3162 µM) was 0.724, the relative viability (NCI-H838; first compound 1 µM) was 0.303 and the relative viability (PC-14; first compound 0.01 µM) was 0.848. For the same molecule, the relative viability (PC-14; first compound 0.03162 µM) was 0.925, the relative viability (PC-14; first compound 0.1 µM) was 0.932 and the relative viability (PC-14; first compound 0.3162 µM) was 0.662. The relative viability (PC-14; first compound 1 µM) was 0.357.
